Test results reported in US7098195B2, “Fluorinated glucosamine analogs useful for modulating post-translational glycosylations on cells” (Health Research, Inc., priority 2001, dated 2006).
Like-named read-outs stand apart in the source and are kept apart here.

What was measured:
[1] = system: E-selectin ligand activity of CLA+ T-lymphocytes; test: Parallel-plate flow chamber, CLA+ T-cell tethering and rolling on E-selectin chimera; assay type: cell-based, human
Experimental: To analyze the affects of 4-F-GlcNAc on the function of CLA on human T-cells, we examined the ability of 4-F-GlcNAc-treated (0.05, 0.1, 0.5 mM for 30 hrs) CLA-+ T-cells cultures to engage with immobilized E- and P-selectin chimera in the parallel-plate flow chamber. As described for flow cytometric analyses (Example 13), cells were first pretreated with neuraminidase to remove terminal sialic acid residues required for HECA-452 reactivity and for E- and P-selectin ligand activity of CLA. This approach allowed for the assessment on de novo synthesized CLA molecules.
Tethering and rolling of human T-cells on recombinant human E- and P-selectin-Ig chimera (provided by Dr. Robert Fuhlbrigge, Harvard Medical School) and human L-selectin-Ig (gift from Dr. Ray Camphausen, Wyeth/Genetics Institute, Inc., Cambridge, Mass.) were analyzed in the parallel-plate flow chamber under physiologic shear stress conditions (3). To prepare E- and P-selectin-Ig chimera spots, protein A (300 μg/15 μl 0.1M NaHCO3) was adsorbed to Ten-twenty-nine™ Petri dishes for 2 h at 37° C. Human serum albumin ([…] PBS) then added and incubated for 2 h at 37° C. to block non-specific binding sites. E-selectin-Ig (50 ng/50 μl PBS) or P-selectin-Ig (50 ng/50 μl PBS) solutions was pipetted directly over the pre-existing protein A spots for 18 h at 4° C. To prepare L-selectin-Ig spots, L-selectin-Ig (300 ng/15 μl PBS) or isotype control human IgG (300 ng/15 μl) were adsorbed directly to plastic (non-protein A-coated) for 18 h at 4° C. and blocked in 100% FBS for 2 h at 4° C.
CLA^+ T-cells or freshly isolated PBL were treated with neuraminidase and metabolic glycosylation inhibitors or with protease (bromelain) as described above, washed twice in HBSS, suspended at 2×10^6/ml in HBSS/10 mM HEPES/2 mM CaCl2 (H/H/Ca^++) and infused into the chamber over selectin chimeras. Protease treatment was performed to control for residual E-selectin activity not attributable to the expression of CLA on a protein scaffold. Cell tethering was permitted at 0.6 dynes/cm^2 for 1 min, then stepwise increments in shear stress every 15 sec were employed to a final shear stress level of 60 dynes/cm^2. The number of cells rolling/viewing field (at 100× magnification) was quantified at each level of shear stress in triplicates for a minimum of three experiments. […] Negative control experiments were performed in parallel, wherein cell binding was examined in H/H adhesion assay medium containing 5 mM EDTA as well as assaying cell binding to human IgG isotype control.
Utilizing the parallel-plate flow chamber under physiologic shear stress conditions, E-, P- and L-selectin ligand activities of human CLA^+ T-cells treated were analyzed in an identical manner as cells prepared for Western blotting and autoradiography studies.

[2] = system: HCELL/CD44 activity on human hematopoietic KG1a cells; test: Stamper-Woodruff adhesion assay, L-selectin-dependent lymphocyte adherence to KG1a cells; assay type: cell-based; details: for relative potency as inhibitor of HCELL activity: 4-F-GlcNAc vs swainsonine, tunicamycin vs both
Description: To study the effects of 4-F-GlcNAc on the function of the L-selectin binding activity of CD44 (HCELL), we employed the shear-based, Stamper-Woodruff adhesion assay to examine the ability of 4-F-GlcNAc-treated KG1a cells to support L-selectin-dependent lymphocyte adherence. This assay is utilized to specifically assess the shear-dependent binding interactions between L-selectin naturally expressed on lymphocytes and HCELL expressed on KG1a cells (Dimitroff, C. J. et al. (2000) Proc. Nat. Acad. Sci., 97(25):13841–46; Sackstein, R. and Dimitroff, C. J. (2000) Blood, 96: 2765–74.). Before treating KG1a cells with 0.05, 0.1 or 0.5 mM 4-F-GlcNAc, we first pretreated KG1a cells with Vibrio cholerae neuraminidase (0.1 U/ml for 1 hr at 37° C.) to cleave all terminal α2,3 sialic acid-bearing residues and eliminate all HCELL activity. Glutaraldehyde-fixed monolayers of KG1a cells that were first treated with Vibrio cholerae neuraminidase (0.1 U/ml for 1 hr at 37° C.) then re-cultured in the presence of 4-F-GlcNAc (0.05–0.5 mM) for 30 hr at 37° C. Metabolic inhibitors swainsonine, an inhibitor of α-mannosidase II, tunicamycin, an inhibitor of N-acetylglucosamine phosphototransferase, were also utilized to compare the relative potencies of known glycosylation inhibitors. Human peripheral blood lymphocytes (5×10^6cells/ml RPMI1640 w/o NaBicarbonate/5%FBS) were overlayed onto KG1a monolayers at 80 rpm for 30 min. at 4° C., and after gently washing in PBS, lymphocytes bound to cell monolayers were fixed in 3% glutaraldehyde. Re-expression of HCELL activity or HECA-452-reactive CD44 on KG1a cells was determined after […] of 4-F-GlcNAc treatment. Bound lymphocytes were quantified at 100× magnification from a minimum of 5 fields from 2 slides, and the mean number of lymphocytes (standard error of the mean) was calculated.

[3] = system: E-selectin ligand activity of murine Th1 cells; test: Flow chamber analysis of E-selectin binding on murine Th1 cells; assay type: cell-based, mouse
Description: CD4+ splenocytes were isolated from C57BL-6 mice by anti-murine CD4 L3T4 magnetic bead technology (Miltenyi Biotec) according to manufacturer's protocol. […] Culturing murine T helper cells in the presence of murine IL-12 and anti-murine IL-4 produces selectin binding Th1 cells by up-regulating FucTVII (69, 70) and core 2 enzyme (43–45, 71, 72), both critical for selectin ligand synthesis (i.e. decoration of PSGL-1 (67, 68)), and prevents the production of non-selectin binding Th2 cells (67–72). Th1 cells were also generated from mice deficient in α1,3 fucosyltransferase, FucTVII, and served as negative controls (33, 38, 40). Cells were harvested and re-plated at 2×10^6cells/ml on non-Ab coated plastic with murine IL-2 (20 ng/ml) in the presence or absence of murine IL-12 (10 ng/ml) and anti-murine IL-4 moAb 11B11 (10 μg/ml) for 48 h. […] Glycosylation inhibitors were added to cultures on day 6.5 for 30 hr, after first treating cells with neuraminidase (0.1 U/ml for 1 hr at 37° C.) to remove all cell surface terminal sialic acid resides and E and P-selectin ligand activity. Since selectin ligands are dependent on terminal sialic acid (α2,3 N-acetylneuraminic acid) for activity, this approach allowed for analysis of de novo synthesized selectin ligands in the presence of 0.05 mM 4-F-GlcNAc, N-glycan inhibitors, 0.23 mM swainsonine and 0.02 mM tunicamycin, and 1 mM GlcNAc (negative control).

[4] = 30 hr after neuraminidase, 0.05 mM 4-F-GlcNAc, 0.23 mM swainsonine, 0.02 mM tunicamycin, 1 mM GlcNAc

CC(=O)N[C@H]1C(OC(C)=O)O[C@H](COC(C)=O)[C@@H](F)[C@@H]1OC(C)=O (stereo partly drawn) [4-F-GlcNAc, 2-acetamido-2-deoxy-1,3,6-tri-O-acetyl-4-deoxy-4-fluoro-D-glucopyranose]
E-selectin ligand activity compared with protease treatment [1]: did not reduce E-selectin ligand activity below that of protease-treatment | difference in cell rolling frequency on E-selectin chimera vs PBS recovery ([1]; 0.05 mM, p<0.001): statistically significant | rolling adhesions on E-selectin chimera ([1]; at 2.0 dynes/cm^2, tunicamycin 0.02 mM, swainsonine 0.23 mM, 4-F-GlcNAc 0.05 mM, BAG 2.0 mM, p<0.01): significant reductions | CLA+ T-cell tethering and rolling mediated by E-selectin ([1]; neuraminidase then 0.1 and 0.5 mM for 30 hrs): completely abolished | relative potency as inhibitor of HCELL activity [2]: more potent inhibitor of HCELL activity | inhibition at 50 µM ([2]; Homo sapiens, KG-1a, KG1a neuraminidase then recovery in 0.05 mM, read-out: % Inhibition (lymphocyte binding)): 60% | inhibition at 100 µM ([2]; Homo sapiens, KG-1a, KG1a neuraminidase then recovery in 0.1 mM, read-out: % Inhibition (lymphocyte binding)): 78% | inhibition at 500 µM ([2]; Homo sapiens, KG-1a, KG1a neuraminidase then recovery in 0.5 mM, read-out: % Inhibition (lymphocyte binding)): 94% | Mean Lymphocyte Binding ([2]; KG1a neuraminidase then recovery in 0.05 mM): 93.6 | Mean Lymphocyte Binding ([2]; KG1a neuraminidase then recovery in 0.1 mM): 50.6 | Mean Lymphocyte Binding ([2]; KG1a neuraminidase then recovery in 0.5 mM): 15.4 | recovery of E-selectin ligand activity of Th1 cells [3, 4]: completely inhibited

CC(=O)N[C@H]1C(O)O[C@H](CO)[C@@H](O)[C@@H]1O (stereo partly drawn) [GlcNAc, N-acetylglucosamine]
recovery of E-selectin ligand activity ([1]; 30 h following neuraminidase digestion, drug control): > 80 % recovery | recovery of E-selectin ligand activity of Th1 cells [3, 4]: no effect

O[C@H]1[C@H]2[C@H](O)CCCN2C[C@H]1O [swainsonine]
rolling adhesions on E-selectin chimera [1]: no effect | inhibition at 230 µM ([2]; Homo sapiens, KG-1a, KG1a neuraminidase then recovery in 0.23 mM, read-out: % Inhibition (lymphocyte binding)): 74% | Mean Lymphocyte Binding ([2]; KG1a neuraminidase then recovery in 0.23 mM): 60.7 | recovery of E-selectin ligand activity of Th1 cells [3]: no effect

tunicamycin
rolling adhesions on E-selectin chimera [1]: significant reductions | relative potency as inhibitor of HCELL activity [2]: more potent inhibitor of HCELL activity than both swainsonine and 4-F-GlcNAc | recovery of E-selectin ligand activity of Th1 cells [3]: completely inhibited
